In US10913727B2, “Modulators of the integrated stress pathway” (Calico Life Sciences LLC, priority 2016, dated 2021) one finds EC50 data, which are given here for 33 compounds.

The EC50 is the concentration giving half of the maximal effect.

The subject of this test is HEK293T cells carrying the ATF4 luciferase reporter. The test is described as follows: ATF4-Luc assay, in vitro model of Vanishing Cell White Matter Disease (VWMD). The class given is cell-based. Particulars: Homo sapiens, HEK-293T, 1 μg/mL tunicamycin, 7 hours, One Glo luminescence. In outline: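 Reporter cells were stably generated by retroviral transduction and puromycin selection, then seeded at 30,000 cells/well. Next day, cells received 1 μg/mL tunicamycin with 200 nM test compound for 7 h, and luciferase luminescence was read with a one-step reagent. Values reported as EC50.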
With `CN(C)c1ccccc1C(=O)NC12CC(NC(=O)COc3ccc(Cl)c(F)c3)(C1)C2` [Compound 532, N-{3-[2-(4-chloro-3-fluorophenoxy)acetamido]bicyclo[1.1.1]pentan-1-yl}-2-(dimethylamino)benzamide], the EC50 was over 2000 nM.
For `COc1ccc(C(=O)NC23CC(NC(=O)COc4ccc(Cl)c(F)c4)(C2)C3)cc1` [Compound 533, N-{3-[2-(4-chloro-3-fluorophenoxy)acetamido]bicyclo[1.1.1]pentan-1-yl}-4-methoxybenzamide], the EC50 lay within 50 to 250 nM.
For the compound `CN(C)c1cccc(C(=O)NC23CC(NC(=O)COc4ccc(Cl)c(F)c4)(C2)C3)c1` [Compound 534, N-{3-[2-(4-chloro-3-fluorophenoxy)acetamido]bicyclo[1.1.1]pentan-1-yl}-3-(dimethylamino)benzamide], the EC50 was 250 to 1000 nM.
Regarding `Cc1cccc(C(=O)NC23CC(NC(=O)COc4ccc(Cl)c(F)c4)(C2)C3)c1` [Compound 535, N-{3-[2-(4-chloro-3-fluorophenoxy)acetamido]bicyclo[1.1.1]pentan-1-yl}-3-methylbenzamide], the half-maximal effective concentration (EC50) lay in the range of 50 to 250 nM.
The figure for `CN(C)c1ccc(C(=O)NC23CC(NC(=O)COc4ccc(Cl)c(F)c4)(C2)C3)cc1` [Compound 536, N-{3-[2-(4-chloro-3-fluorophenoxy)acetamido]bicyclo[1.1.1]pentan-1-yl}-4-(dimethylamino)benzamide] is 250 to 1000 nM; for `Cc1cc(C(=O)NC23CC(NC(=O)COc4ccc(Cl)c(F)c4)(C2)C3)c(C)o1` [Compound 537, N-{3-[2-(4-chloro-3-fluorophenoxy)acetamido]bicyclo[1.1.1]pentan-1-yl}-2,5-dimethylfuran-3-carboxamide] it is 250 to 1000 nM; for `CCOc1ccccc1C(=O)NC12CC(NC(=O)COc3ccc(Cl)c(F)c3)(C1)C2` [Compound 538, N-{3-[2-(4-chloro-3-fluorophenoxy)acetamido]bicyclo[1.1.1]pentan-1-yl}-2-ethoxybenzamide] it is under 50 nM.
Take `Cc1nc(C(=O)NC23CC(NC(=O)COc4ccc(Cl)c(F)c4)(C2)C3)cs1` [Compound 539, N-{3-[2-(4-chloro-3-fluorophenoxy)acetamido]bicyclo[1.1.1]pentan-1-yl}-2-methyl-1,3-thiazole-4-carboxamide]: the EC50 was 50 to 250 nM.
To `COc1ccc(F)cc1C(=O)NC12CC(NC(=O)COc3ccc(Cl)c(F)c3)(C1)C2` [Compound 540, N-{3-[2-(4-chloro-3-fluorophenoxy)acetamido]bicyclo[1.1.1]pentan-1-yl}-5-fluoro-2-methoxybenzamide] belongs 250 to 1000 nM.
Regarding `Cc1scnc1C(=O)NC12CC(NC(=O)COc3ccc(Cl)c(F)c3)(C1)C2` [Compound 541, N-{3-[2-(4-chloro-3-fluorophenoxy)acetamido]bicyclo[1.1.1]pentan-1-yl}-5-methyl-1,3-thiazole-4-carboxamide], the EC50 lay in the range of 1000 to 2000 nM.
Take `CN(C)Cc1ccccc1C(=O)NC12CC(NC(=O)COc3ccc(Cl)c(F)c3)(C1)C2` [Compound 542, N-{3-[2-(4-chloro-3-fluorophenoxy)acetamido]bicyclo[1.1.1]pentan-1-yl}-2-[(dimethylamino)methyl]benzamide]: the 50% effective concentration (EC50) was over 2000 nM.
In the case of `CCN(CC)c1cccc(C(=O)NC23CC(NC(=O)COc4ccc(Cl)c(F)c4)(C2)C3)c1` [Compound 543, N-{3-[2-(4-chloro-3-fluorophenoxy)acetamido]bicyclo[1.1.1]pentan-1-yl}-3-(diethylamino)benzamide], the EC50 was over 2000 nM.
Consider `O=C(COc1ccc(Cl)c(F)c1)NC12CC(NC(=O)c3coc(C(F)(F)F)c3)(C1)C2` [Compound 544, N-{3-[2-(4-chloro-3-fluorophenoxy)acetamido]bicyclo[1.1.1]pentan-1-yl}-5-(trifluoromethyl)furan-3-carboxamide], for which the EC50 is under 50 nM.
With `Cc1ccoc1C(=O)NC12CC(NC(=O)COc3ccc(Cl)c(F)c3)(C1)C2` [Compound 545, N-{3-[2-(4-chloro-3-fluorophenoxy)acetamido]bicyclo[1.1.1]pentan-1-yl}-3-methylfuran-2-carboxamide], the EC50 lay within 250 to 1000 nM.
Regarding `CN(C)Cc1ccc(C(=O)NC23CC(NC(=O)COc4ccc(Cl)c(F)c4)(C2)C3)cc1` [Compound 546, N-{3-[2-(4-chloro-3-fluorophenoxy)acetamido]bicyclo[1.1.1]pentan-1-yl}-4-[(dimethylamino)methyl]benzamide], the EC50 is over 2000 nM.
The figure for `COc1c(F)cccc1C(=O)NC12CC(NC(=O)COc3ccc(Cl)c(F)c3)(C1)C2` [Compound 547, N-{3-[2-(4-chloro-3-fluorophenoxy)acetamido]bicyclo[1.1.1]pentan-1-yl}-3-fluoro-2-methoxybenzamide] is 1000 to 2000 nM.
As for `COc1ccsc1C(=O)NC12CC(NC(=O)COc3ccc(Cl)c(F)c3)(C1)C2` [Compound 548, N-{3-[2-(4-chloro-3-fluorophenoxy)acetamido]bicyclo[1.1.1]pentan-1-yl}-3-methoxythiophene-2-carboxamide], the EC50 is over 2000 nM.
As for `CN(C)CCOc1ccccc1C(=O)NC12CC(NC(=O)COc3ccc(Cl)c(F)c3)(C1)C2` [Compound 549, N-{3-[2-(4-chloro-3-fluorophenoxy)acetamido]bicyclo[1.1.1]pentan-1-yl}-2-[2-(dimethylamino)ethoxy]benzamide], the EC50 was over 2000 nM.
Turning to `COCc1ccccc1C(=O)NC12CC(NC(=O)COc3ccc(Cl)c(F)c3)(C1)C2` [Compound 550, N-{3-[2-(4-chloro-3-fluorophenoxy)acetamido]bicyclo[1.1.1]pentan-1-yl}-2-(methoxymethyl)benzamide], the EC50 was in the range of 1000 to 2000 nM.
In the case of `CCOc1ccsc1C(=O)NC12CC(NC(=O)COc3ccc(Cl)c(F)c3)(C1)C2` [Compound 551, N-{3-[2-(4-chloro-3-fluorophenoxy)acetamido]bicyclo[1.1.1]pentan-1-yl}-3-ethoxythiophene-2-carboxamide], the EC50 fell in the range of 50 to 250 nM.
For the compound `COCc1ccc(C(=O)NC23CC(NC(=O)COc4ccc(Cl)c(F)c4)(C2)C3)cc1` [Compound 552, N-{3-[2-(4-chloro-3-fluorophenoxy)acetamido]bicyclo[1.1.1]pentan-1-yl}-4-(methoxymethyl)benzamide], the EC50 lay within 50 to 250 nM.
`CN(C)Cc1cccc(C(=O)NC23CC(NC(=O)COc4ccc(Cl)c(F)c4)(C2)C3)c1` [Compound 553, N-{3-[2-(4-chloro-3-fluorophenoxy)acetamido]bicyclo[1.1.1]pentan-1-yl}-3-[(dimethylamino)methyl]benzamide]: the 50% effective concentration (EC50) was over 2000 nM.
In the case of `CCc1nc(C(=O)NC23CC(NC(=O)COc4ccc(Cl)c(F)c4)(C2)C3)cs1` [Compound 554, N-{3-[2-(4-chloro-3-fluorophenoxy)acetamido]bicyclo[1.1.1]pentan-1-yl}-2-ethyl-1,3-thiazole-4-carboxamide], the EC50 was under 50 nM.
As for `Cc1ccc(C(=O)NC23CC(NC(=O)COc4ccc(Cl)c(F)c4)(C2)C3)o1` [Compound 555, N-{3-[2-(4-chloro-3-fluorophenoxy)acetamido]bicyclo[1.1.1]pentan-1-yl}-5-methylfuran-2-carboxamide], the concentration for a half-maximal effect (EC50) was 50 to 250 nM.
Turning to `Cc1occc1C(=O)NC12CC(NC(=O)COc3ccc(Cl)c(F)c3)(C1)C2` [Compound 556, N-{3-[2-(4-chloro-3-fluorophenoxy)acetamido]bicyclo[1.1.1]pentan-1-yl}-2-methylfuran-3-carboxamide], the concentration for a half-maximal effect (EC50) lay within 1000 to 2000 nM.
To `COc1cscc1C(=O)NC12CC(NC(=O)COc3ccc(Cl)c(F)c3)(C1)C2` [Compound 557, N-{3-[2-(4-chloro-3-fluorophenoxy)acetamido]bicyclo[1.1.1]pentan-1-yl}-4-methoxythiophene-3-carboxamide] belongs over 2000 nM.
For the compound `Cc1ncsc1C(=O)NC12CC(NC(=O)COc3ccc(Cl)c(F)c3)(C1)C2` [Compound 558, N-{3-[2-(4-chloro-3-fluorophenoxy)acetamido]bicyclo[1.1.1]pentan-1-yl}-4-methyl-1,3-thiazole-5-carboxamide], the half-maximal effective concentration (EC50) lay in the range of 1000 to 2000 nM.
Take `Cc1nc(C(=O)NC23CC(NC(=O)COc4ccc(Cl)c(Cl)c4)(C2)C3)cs1` [Compound 559, N-{3-[2-(3,4-dichlorophenoxy)acetamido]bicyclo[1.1.1]pentan-1-yl}-2-methyl-1,3-thiazole-4-carboxamide]: the EC50 was under 50 nM.
To `O=C(COc1ccc(Cl)c(F)c1)NC12CCC(NC(=O)c3ccccc3F)(CC1)C[C@@H]2O` [Compound 560, N-{(3S)-4-[2-(4-chloro-3-fluorophenoxy)acetamido]-3-hydroxybicyclo[2.2.2]octan-1-yl}-2-fluorobenzamide] belongs 50 to 250 nM.
As for `Cc1cc2c(C(=O)NC34CC(NC(=O)COc5ccc(Cl)c(F)c5)(C3)C4)nccn2n1` [Compound 561, N-{3-[2-(4-chloro-3-fluorophenoxy)acetamido]bicyclo[1.1.1]pentan-1-yl}-2-methylpyrazolo[1,5-a]pyrazine-4-carboxamide], the EC50 is over 2000 nM.
As to `Cc1cc2c(C(=O)NC34CC(NC(=O)COc5ccc(Cl)c(Cl)c5)(C3)C4)nccn2n1` [Compound 562, N-{3-[2-(3,4-dichlorophenoxy)acetamido]bicyclo[1.1.1]pentan-1-yl}-2-methylpyrazolo[1,5-a]pyrazine-4-carboxamide], the EC50 fell in the range of 250 to 1000 nM.
For `O=C(COc1ccc(Cl)c(F)c1)NC12CC(NC(=O)c3cnc(C(F)(F)F)s3)(C1)C2` [Compound 563, N-{3-[2-(4-chloro-3-fluorophenoxy)acetamido]bicyclo[1.1.1]pentan-1-yl}-2-(trifluoromethyl)-1,3-thiazole-5-carboxamide], the EC50 was under 50 nM.
With `Cc1cc(C(=O)NC23CC(NC(=O)COc4ccc(Cl)c(F)c4)(C2)C3)sn1` [Compound 564, N-{3-[2-(4-chloro-3-fluorophenoxy)acetamido]bicyclo[1.1.1]pentan-1-yl}-3-methyl-1,2-thiazole-5-carboxamide], the EC50 is 50 to 250 nM.
